Assay [1] concerns murine undifferentiated colon carcinoma cell line CT26. Briefly: CT26 subcutaneous syngeneic model in combination with anti-mPD-1 antibody. The assay is classed as in vivo, BALB/c mice. How it is done: A murine undifferentiated colon carcinoma cell line CT26, which had been cultured in an RPMI-1640 medium containing 10% FBS, and penicillin and streptomycin, was adjusted to a concentration of 2×10^7 cells/mL with Hank's Balanced Salt Solution to prepare a cell suspension. On day 1, the cell suspension was inoculated in a volume of 100 μL into a subcutaneous part of a right flank of BALB/c mice, 6 weeks of ages (BALB/cAnNCrlCrlj, female, Charles River Laboratories Japan, Inc.). Two days after the cell inoculation, the mice were randomly divided into four groups and each group consists of 8 mice. The shortest diameter and the longest diameter of a tumor in each mouse were measured by using an electronic digital caliper (Digimatic™ caliper, Mitutoyo Corporation), so as to calculate the volume of the tumor in accordance with the following calculation formula: […]
The test compound was intravenously administered at 0.09 mg/kg on days 3 and 11. Anti-mPD-1 antibody (BE0146, Bio X Cell) was intravenously administered at 10 mg/kg on days 3, 7, 11, and 15.

Assay [2] deals with OE21, OE33, TE-8, MES-SA, MES-SA/Dx5-RX1 cell lines. The assay can be described thus: In vitro antiproliferative activity, esophageal and uterine cancer cell panel (FIG. 11). It counts as cell-based, human. Particulars: 72 hours, CellTiter-Glo; values only in FIG. 11. How it is done: The in vitro antiproliferative assays for Compound (1) were conducted using a small panel of cancer cell lines including human squamous cell carcinoma of the esophagus (OE21, TE-8), human […] of the esophagus (OE33), and human uterine sarcoma (MES-SA, MES-SA-Dx5-R^X1). All cell lines were cultured in RPMI-1640 medium containing 10% FBS, and penicillin-streptomycin (culture medium), in a 5% CO2 incubator (37° C.). To each well of a 96 well plate (Becton, Dickinson and Company, 353219), 75 μL of cell suspension adjusted to a concentration of 4×10^4 cells/mL with the culture medium was added, and the cells were incubated overnight in a 5% CO2 incubator (37° C.). On the next day, 25 μL of Compound (1) in three-fold dilution series suspended in the culture medium was added to each well, and the resultant was incubated for 72 hours in a 5% CO2 incubator (37° C.). Then, cell viability was determined by CellTiter-Glo® Luminescent Cell Viability Assay (Promega) with 2013 EnVision™ Multilabel Reader (Perkin-Elmer, Wellesley, MA). Value of the wells containing cells without adding the test compounds was defined as 100% and the value of the wells containing no cells was defined as 0%. […] The P-gp susceptibility was calculated as the ratio of the IC50 value in MES-SA-Dx5-R^X1 cells, which overexpress P-gp, to the IC50 value in MES-SA cells.
In general terms: In ATP-based viability assays light output follows the ATP content of the culture.

Assay [3] has as its system CD31-positive vessel in FaDu tumor. Briefly: Effect on CD31-positive vessel in the FaDu subcutaneous model (FIG. 13). The assay is classed as in vivo, nude mice. Particulars: single i.v. administration at 20, 60, and 180 μg/kg, five days after. The procedure:
A human squamous cell carcinoma of the head and neck (SCCHN) cell line FaDu, which had been cultured in an RPMI-1640 medium containing 10% FBS, and penicillin-streptomycin (culture medium), was adjusted to a concentration of 5×10^7 cells/mL with culture medium to prepare a cell suspension. The cell suspension was inoculated in a volume of 100 μL into a subcutaneous part of a right flank of nude mice, 6 weeks of ages (CAnN.Cg-Foxnlnu/CrlCrlj, female, Charles River Laboratories Japan, Inc.). Ten days after cell inoculation, the mice were grouped such that averages of the tumor volumes were substantially equal among the groups. The experiment was conducted on groups each consisting of 6 mice. Each test compound was dissolved in DMSO and a solution was stored in the freezer before use. Immediately before the administration, the stock solution was diluted with saline. […] The number of blood vessels in the whole tumor was quantified by counting the CD31-positive objects using inform 2 software (PerkinElmer Inc.) Area of the tumor region was measured by assessing the hematoxylin-staining area using inform 2 software (PerkinElmer Inc.) The number of blood vessels was normalized by the area of the tumor region. […] The ratios of blood vessel number in the test compound-dosing groups compared to non-treat group were calculated with the below formula: […]

With `C=C1C[C@@H]2CC[C@@]34C[C@H]5O[C@H]6[C@@H](O3)[C@H]3O[C@H](CC[C@@H]3O[C@H]6C5O4)CC(=O)O[C@@H]3[C@@H](C)[C@@H]4O[C@@H]5C[C@]6(C[C@@H]7O[C@]8(C[C@H](C)[C@@H]9O[C@H](CN)[C@H](O)C[C@@H]9O8)C[C@H](C)[C@@H]7O6)O[C@@H]5C[C@@H]4O[C@H]3C[C@H]3O[C@@H](CC[C@@H]1O2)C[C@@H](C)C3=C` (stereo in doubt) [Compound (1)], the “Inhibition of tumor growth on day 15 (%)” value is recorded as 62% in assay [1] (0.09 mg/kg i.v. days 3 and 11 + anti-mPD-1 antibody 10 mg/kg); 30% in assay [1] (single agent: anti-mPD-1 antibody 10 mg/kg or Compound (1) 0.09 mg/kg). In addition, the antiproliferative activity result in assay [2] is listed as “potent antiproliferative agent”. Also, in assay [3], the “tumor blood vessel number” value was “increased the tumor blood vessel number”.

The record behind these values is US20240309014A1, “MACROCYCLIC COMPOUNDS AND USES THEREOF” (President and Fellows of Harvard College, priority 2017, published 2024).
